Experimental data as given in ChEMBL document CHEMBL1201862, “PubChem BioAssay data set” (2004).
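Assay format: 96-well plates, 48-hour exposure. Here, GI50 denotes the concentration required for 50% inhibition of growth.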 Calls of active or inactive are those of the source. No stated cut-off is given here; in the data, active = GI50 up to about 1.1 µM and inactive = higher.

What was measured:
Experiment in all cases: NCI tumour cell line growth inhibition, 48 h
Hs-578T = tested on: Hs-578T
OVCAR-5 = tested on: OVCAR-5
HOP-62 = tested on: HOP-62
CCRF-CEM = tested on: CCRF-CEM
TK-10 = tested on: TK-10
T47D = tested on: T47D
CAKI-1 = tested on: CAKI-1
Malme-3M = tested on: Malme-3M
786-0 = tested on: 786-0
K562 = tested on: K562
SR = tested on: SR
NCI-H522 = tested on: NCI-H522
RXF 393 = tested on: RXF 393
RPMI-8226 = tested on: RPMI-8226
OVCAR-4 = tested on: OVCAR-4
HOP-92 = tested on: HOP-92
BT-549 = tested on: BT-549
SK-MEL-28 = tested on: SK-MEL-28
HCT-15 = tested on: HCT-15

Row | Structure (SMILES) | GI50 (Hs-578T) | GI50 (OVCAR-5) | GI50 (HOP-62) | GI50 (CCRF-CEM) | GI50 (TK-10) | GI50 (T47D) | GI50 (CAKI-1) | GI50 (Malme-3M) | GI50 (786-0) | GI50 (K562) | GI50 (SR) | GI50 (NCI-H522) | GI50 (RXF 393) | GI50 (RPMI-8226) | GI50 (OVCAR-4) | GI50 (HOP-92) | GI50 (BT-549) | GI50 (SK-MEL-28) | GI50 (HCT-15) [µM]
1 | CC1(C)Oc2ccc3c(=O)cc(-c4cccs4)oc3c2C1C(=O)O (centres undefined) | > 100 µM (inactive) | > 100 µM (inactive) | > 100 µM (inactive) | > 100 µM (inactive) | > 100 µM (inactive) | > 100 µM (inactive) | 23.2 µM (inactive) | > 100 µM (inactive) | > 100 µM (inactive) | > 100 µM (inactive) | > 100 µM (inactive) | > 100 µM (inactive) | > 100 µM (inactive) | – | – | – | – | – | –
2 | CN[C@H]1CC[C@]23C[C@]24CC[C@]2(C)[C@@H]([C@H](C)N(C)C)CC[C@@]2(C)[C@@H]4CC[C@H]3C1(C)C | 16.8 µM (inactive) | 21 µM (inactive) | – | 15.1 µM (inactive) | 18.3 µM (inactive) | 14.6 µM (inactive) | 21.9 µM (inactive) | 17.1 µM (inactive) | 6.78 µM (inactive) | – | – | 17.2 µM (inactive) | – | 12.9 µM (inactive) | 17.7 µM (inactive) | 10.9 µM (inactive) | 12.7 µM (inactive) | 12.4 µM (inactive) | 10.7
3 | CC1(C)C2CC3C(C)(C2)C31c1cc(Cl)ccc1N (centres undefined) | – | 16 µM (inactive) | 15.3 µM (inactive) | 16 µM (inactive) | 15.5 µM (inactive) | 12 µM (inactive) | 15.6 µM (inactive) | 7.53 µM (inactive) | 15.3 µM (inactive) | 10.5 µM (inactive) | 6.79 µM (inactive) | 6.71 µM (inactive) | 10.3 µM (inactive) | 13 µM (inactive) | 15.2 µM (inactive) | 13.3 µM (inactive) | 15.5 µM (inactive) | 17.3 µM (inactive) | 10.9
4 | Cc1nc2n(c1/C=C1/C(=O)Nc3ccccc31)CCS2 | 39.5 µM (inactive) | > 100 µM (inactive) | > 100 µM (inactive) | 47.1 µM (inactive) | 31.6 µM (inactive) | 25.8 µM (inactive) | 42.1 µM (inactive) | 56 µM (inactive) | 64.1 µM (inactive) | 33.3 µM (inactive) | – | 34.5 µM (inactive) | 18.7 µM (inactive) | 47.1 µM (inactive) | 52.5 µM (inactive) | > 100 µM (inactive) | 41.3 µM (inactive) | 78 µM (inactive) | 34.2
5 | Cc1nc(Nc2ccccc2Cl)sc1C(=O)CC(=O)C(N)=O | 59.2 µM (inactive) | > 100 µM (inactive) | > 100 µM (inactive) | 32.6 µM (inactive) | > 100 µM (inactive) | > 100 µM (inactive) | > 100 µM (inactive) | – | 58.9 µM (inactive) | 33.4 µM (inactive) | – | 1.96 µM (inactive) | 48.8 µM (inactive) | 26.3 µM (inactive) | > 100 µM (inactive) | 7.98 µM (inactive) | > 100 µM (inactive) | – | 33.7
6 | COc1cc(/C=C/C(=O)CC(=O)/C=C/c2ccc(OC(=O)CCCCC3CCSS3)c(OC)c2)ccc1OC(=O)CCCCC1CCSS1 (centres undefined) | > 100 µM (inactive) | > 100 µM (inactive) | > 100 µM (inactive) | > 100 µM (inactive) | > 100 µM (inactive) | – | – | > 100 µM (inactive) | > 100 µM (inactive) | > 100 µM (inactive) | – | > 100 µM (inactive) | > 100 µM (inactive) | > 100 µM (inactive) | > 100 µM (inactive) | – | > 100 µM (inactive) | > 100 µM (inactive) | > 100
7 | c1ccc(-c2cccc(-c3ccccn3)n2)nc1 [TERPYRIDINE] | 7.06 µM (inactive) | 0.755 µM (active) | 0.52 µM (active) | 0.249 µM (active) | 0.847 µM (active) | 1.1 µM (active) | 0.527 µM (active) | 0.181 µM (active) | 0.368 µM (active) | 0.345 µM (active) | 0.317 µM (active) | 0.489 µM (active) | 0.424 µM (active) | 0.315 µM (active) | 0.558 µM (active) | – | – | 0.706 µM (active) | 0.407
8 | C=C([C@@]1(O)C[C@H]2[C@H](CCC2(OC)OC)[C@@H]2c3ccccc3O[C@@H]21)[Si](C)(C)C | > 100 µM (inactive) | > 100 µM (inactive) | > 100 µM (inactive) | – | > 100 µM (inactive) | 69.8 µM (inactive) | > 100 µM (inactive) | – | > 100 µM (inactive) | 59.3 µM (inactive) | 31.9 µM (inactive) | 89.7 µM (inactive) | – | 44.4 µM (inactive) | > 100 µM (inactive) | 1.78 µM (inactive) | > 100 µM (inactive) | > 100 µM (inactive) | > 100
9 | O=C(/C=C/c1ccc(-c2ccccc2)cc1)NCc1ccc(C(=O)NCc2ccccc2)cc1 | > 100 µM (inactive) | > 100 µM (inactive) | 57.1 µM (inactive) | > 100 µM (inactive) | > 100 µM (inactive) | > 100 µM (inactive) | > 100 µM (inactive) | > 100 µM (inactive) | > 100 µM (inactive) | – | – | > 100 µM (inactive) | 12.7 µM (inactive) | – | > 100 µM (inactive) | > 100 µM (inactive) | > 100 µM (inactive) | > 100 µM (inactive) | > 100
10 | O=c1cc(CC(O)(C(F)(F)Cl)C(F)(F)Cl)[nH]n1-c1ccccc1 | 15 µM (inactive) | > 100 µM (inactive) | > 100 µM (inactive) | > 100 µM (inactive) | > 100 µM (inactive) | 52.6 µM (inactive) | – | > 100 µM (inactive) | > 100 µM (inactive) | 92.3 µM (inactive) | > 100 µM (inactive) | – | > 100 µM (inactive) | > 100 µM (inactive) | > 100 µM (inactive) | 20.7 µM (inactive) | – | > 100 µM (inactive) | > 100
11 | Cc1cn(C2CC(N=[N+]=[N-])C(CO)O2)c(=O)n(CCCCBr)c1=O (centres undefined) | > 100 µM (inactive) | > 100 µM (inactive) | > 100 µM (inactive) | < 0.01 µM (active) | > 100 µM (inactive) | > 100 µM (inactive) | > 100 µM (inactive) | > 100 µM (inactive) | > 100 µM (inactive) | > 100 µM (inactive) | – | > 100 µM (inactive) | > 100 µM (inactive) | 50.7 µM (inactive) | > 100 µM (inactive) | > 100 µM (inactive) | > 100 µM (inactive) | > 100 µM (inactive) | > 100
12 | CCOC(=O)c1c(N2CCCC2)ncn(C)c1=S | > 100 µM (inactive) | > 100 µM (inactive) | > 100 µM (inactive) | > 100 µM (inactive) | > 100 µM (inactive) | > 100 µM (inactive) | > 100 µM (inactive) | > 100 µM (inactive) | > 100 µM (inactive) | > 100 µM (inactive) | > 100 µM (inactive) | > 100 µM (inactive) | > 100 µM (inactive) | > 100 µM (inactive) | > 100 µM (inactive) | 93.3 µM (inactive) | – | > 100 µM (inactive) | > 100
13 | O=C(CCc1ccccc1)ON1C(=S)C(c2ccccc2)(c2ccccc2)N=C1Sc1ccccc1 | 38.7 µM (inactive) | > 100 µM (inactive) | 41.8 µM (inactive) | 20.3 µM (inactive) | 89.9 µM (inactive) | 59.4 µM (inactive) | 74.1 µM (inactive) | 48.1 µM (inactive) | 26.5 µM (inactive) | 36.1 µM (inactive) | – | – | > 100 µM (inactive) | 22 µM (inactive) | 58.1 µM (inactive) | > 100 µM (inactive) | 54 µM (inactive) | – | 24.9
14 | CC(C)OC(=O)/C=C/C(=O)O/C=C/[N+](=O)[O-] | – | 37.6 µM (inactive) | 34 µM (inactive) | – | 32.6 µM (inactive) | 12.7 µM (inactive) | 34 µM (inactive) | 29.6 µM (inactive) | 29.2 µM (inactive) | 7.64 µM (inactive) | 24.4 µM (inactive) | – | 18.3 µM (inactive) | 15.5 µM (inactive) | 26.9 µM (inactive) | – | 41.8 µM (inactive) | 26.7 µM (inactive) | 35
15 | Clc1cccc(Cl)c1C1SCc2nc3ncccc3n21 (centres undefined) | > 100 µM (inactive) | > 100 µM (inactive) | > 100 µM (inactive) | 92.3 µM (inactive) | > 100 µM (inactive) | > 100 µM (inactive) | 8.07 µM (inactive) | 55.8 µM (inactive) | > 100 µM (inactive) | 49.5 µM (inactive) | > 100 µM (inactive) | > 100 µM (inactive) | > 100 µM (inactive) | 80.4 µM (inactive) | 52.2 µM (inactive) | – | – | > 100 µM (inactive) | > 100
16 | O=C1/C(=C/c2cccc(Cl)c2)CCCc2ccccc21 | 15.5 µM (inactive) | 16.5 µM (inactive) | 21.6 µM (inactive) | 10.2 µM (inactive) | 18 µM (inactive) | – | 24.1 µM (inactive) | 19.1 µM (inactive) | 17.8 µM (inactive) | 14.3 µM (inactive) | 11.6 µM (inactive) | 14.5 µM (inactive) | – | 8.26 µM (inactive) | 15.8 µM (inactive) | 21.1 µM (inactive) | 19.7 µM (inactive) | 17.3 µM (inactive) | 17.2
17 | O=S(=O)(O)c1cccc2ccc(O)c(/N=N\c3ccc(S(=O)(=O)c4ccc(/N=N/c5c(O)ccc6cccc(S(=O)(=O)O)c56)cc4)cc3)c12 | > 100 µM (inactive) | > 100 µM (inactive) | > 100 µM (inactive) | > 100 µM (inactive) | > 100 µM (inactive) | > 100 µM (inactive) | > 100 µM (inactive) | > 100 µM (inactive) | > 100 µM (inactive) | 50.4 µM (inactive) | – | > 100 µM (inactive) | > 100 µM (inactive) | > 100 µM (inactive) | > 100 µM (inactive) | > 100 µM (inactive) | > 100 µM (inactive) | > 100 µM (inactive) | > 100
